Each compound was assayed against Bek (Homo sapiens, UniProt P21802) (assay: Inhibitory activity against Bek-autophosphorylation using ELISA method in OCUM-2MD3 cells). Settings: 1 hr with compound, read-out: IC50 (concentration necessary for inhibiting 50% of Bek-phosphorylation).
Sequence of Bek (P21802 431-767 limits assumed): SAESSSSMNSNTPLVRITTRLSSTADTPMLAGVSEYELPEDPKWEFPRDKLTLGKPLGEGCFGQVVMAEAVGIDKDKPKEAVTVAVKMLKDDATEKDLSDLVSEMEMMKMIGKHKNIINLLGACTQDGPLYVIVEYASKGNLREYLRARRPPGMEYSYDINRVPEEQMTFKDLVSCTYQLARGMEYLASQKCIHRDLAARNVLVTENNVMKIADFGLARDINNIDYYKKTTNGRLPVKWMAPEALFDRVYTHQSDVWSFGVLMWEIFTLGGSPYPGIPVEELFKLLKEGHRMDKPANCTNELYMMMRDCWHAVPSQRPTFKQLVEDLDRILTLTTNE
Type: cell-based
Summary of the method: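 OCUM-2MD3 human scirrhous gastric cancer cells in 0.1% FCS were exposed to compound for 1 hr at 37° C, then lysed. Phospho-tyrosine proteins were captured with anti-phosphotyrosine antibody, probed with anti-Bek antibody and peroxidase read-out (A450). Positive control (1000 nM) set 0%, untreated 100%; IC50 from multi-level dilutions.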
Work on COc1cc2c(Oc3ccc(Nc4ccc(C(C)(C)C)cc4)cc3)ccnc2cc1OCCN1CC(C)OC(C)C1 (stereo not drawn) [Compound 238, (4-Tert-butyl-phenyl)-(4-{7-[2-(2,6-dimethyl-morpholin-4-yl)-ethoxy]-6-methoxy-quinolin-4-yloxy}-phenyl)-amine] yielded an IC50 of 47.2 nM.
For COc1cc2c(Oc3ccc(Nc4ccc(C(C)(C)C)cc4)cc3)ccnc2cc1OCCN1CC(C)CC(C)C1 (stereo not drawn) [Compound 239, (4-Tert-butyl-phenyl)-(4-{7-[2-(3,5-dimethyl-piperidin-1-yl)-ethoxy]-6-methoxy-quinolin-4-yloxy}-phenyl)-amine], the IC50 was 895 nM.
In the case of COc1cc2c(Oc3ccc(Nc4ccc(C(C)(C)C)cc4)cc3)ccnc2cc1OCCN1CCC(N2CCCCC2)CC1 [Compound 242, {4-[7-(2-[1,4′]Bipiperidineyl-1′-yl-ethoxy)-6-methoxy-quinolin-4-yloxy]-phenyl}-(4-tert-butyl-phenyl)-amine], the IC50 is reported as 401 nM.
COc1cc2c(Oc3ccc(Nc4ccc(C(C)(C)C)cc4)cc3)ccnc2cc1OCCN1CCC(N2CCCC2)CC1 [Compound 243, (4-Tert-butyl-phenyl)-(4-{6-methoxy-7-[2-(4-pyrrolidin-1-yl-piperidin-1-yl)-ethoxy]-quinolin-4-yloxy}-phenyl)-amine] was tested, and the IC50 was 342 nM.
With COc1cc2c(Oc3ccc(NC(=O)NCCC(C)(C)C)cc3)ccnc2cc1OCCCN1CC(C)OC(C)C1 (stereo not drawn) [Compound 244, 1-(3,3-Dimethyl-butyl)-3-(4-{7-[3-(2,6-dimethyl-morpholin-4-yl)-propoxy]-6-methoxy-quinolin-4-yloxy}-phenyl)-urea] the IC50 was < 10 nM.
Work on COc1cc2c(Oc3ccc(NC(=O)NCCC(C)(C)C)cc3)ccnc2cc1OCCCN1CC(C)CC(C)C1 (stereo not drawn) [Compound 245, 1-(3,3-Dimethyl-butyl)-3-(4-{7-[3-(3,5-dimethyl-piperidin-1-yl)-propoxy]-6-methoxy-quinolin-4-yloxy}-phenyl)-urea] yielded an IC50 of 16.5 nM.
With COc1cc2c(Oc3ccc(NC(=O)NCCC(C)(C)C)cc3)ccnc2cc1OCCCN1CCC(c2ccccc2)CC1 [Compound 246, 1-(3,3-Dimethyl-butyl)-3-(4-{6-methoxy-7-[3-(4-phenyl-piperidin-1-yl)-propoxy]-quinolin-4-yloxy}-phenyl)-urea] the IC50 was 30.9 nM.
COc1cc2c(Oc3ccc(NC(=O)NCCC(C)(C)C)cc3)ccnc2cc1OCCCN1CCC(Cc2ccccc2)CC1 [Compound 247, 1-(4-{7-[3-(4-Benzyl-piperidin-1-yl)-propoxy]-6-methoxy-quinolin-4-yloxy}-phenyl)-3-(3,3-dimethyl-butyl)-urea] showed an IC50 of 81.9 nM.
COc1cc2c(Oc3ccc(NC(=O)NCCC(C)(C)C)cc3)ccnc2cc1OCCCN1CCC(N2CCCCC2)CC1 [Compound 248, 1-{4-[7-(3-[1,4′]Bipiperidinyl-1′-yl-propoxy)-6-methoxy-quinolin-4-yloxy]-phenyl}-3-(3,3-dimethyl-butyl)-urea] showed an IC50 of 12.6 nM.
With COc1cc2c(Oc3ccc(NC(=O)NCCC(C)(C)C)cc3)ccnc2cc1OCCCN1CCC(N2CCCC2)CC1 [Compound 249, 1-(3,3-Dimethyl-butyl)-3-(4-{6-methoxy-7-[3-(4-pyrrolidin-1-yl-piperidin-1-yl)-propoxy]-quinolin-4-yloxy}-phenyl)-urea] the IC50 was < 10 nM.
COc1cc2c(Oc3ccc(NC(=O)NCCC(C)(C)C)cc3)ccnc2cc1OCC(O)CN1CC(C)OC(C)C1 (stereo not drawn) [Compound 250, 1-(3,3-Dimethyl-butyl)-3-(4-{7-[3-(2,6-dimethyl-morpholin-4-yl)-2-hydroxy-propoxy]-6-methoxy-quinolin-4-yloxy}-phenyl)-urea] was tested, and the IC50 was < 10 nM.
For COc1cc2c(Oc3ccc(NC(=O)NCCC(C)(C)C)cc3)ccnc2cc1OCC(O)CN1CC(C)CC(C)C1 (stereo not drawn) [Compound 251, 1-(3,3-Dimethyl-butyl)-3-(4-{7-[3-(3,5-dimethyl-piperidin-1-yl)-2-hydroxy-propoxy]-6-methoxy-quinolin-4-yloxy}-phenyl)-urea], the IC50 was 20.7 nM.
COc1cc2c(Oc3ccc(NC(=O)NCCC(C)(C)C)cc3)ccnc2cc1OCC(O)CN1CCC(c2ccccc2)CC1 (stereo not drawn) [Compound 252, 1-(3,3-Dimethyl-butyl)-3-(4-{7-[2-hydroxy-3-(4-phenyl-piperidin-1-yl)-propoxy]-6-methoxy-quinolin-4-yloxy}-phenyl)-urea] showed an IC50 of 42.6 nM.
COc1cc2c(Oc3ccc(Nc4ccc(C(C)(C)C)cc4)cc3)ccnc2cc1OCC(O)CN1CC(C)OC(C)C1 (stereo not drawn) [Compound 253, 1-{4-[4-(4-Tert-butyl-phenylamino)-phenoxy]-6-methoxy-quinolin-7-yloxy}-3-(2,6-dimethyl-morpholin-4-yl)-propan-2-ol] showed an IC50 of 28.5 nM.
COc1cc2c(Oc3ccc(Nc4ccc(C(C)(C)C)cc4)cc3)ccnc2cc1OCC(O)CN1CC(C)CC(C)C1 (stereo not drawn) [Compound 254, 1-{4-[4-(4-Tert-butyl-phenylamino)-phenoxy]-6-methoxy-quinolin-7-yloxy}-3-(3,5-dimethyl-piperidin-1-yl)-propan-2-ol] showed an IC50 of 94.2 nM.
For COc1cc2c(Oc3ccc(Nc4ccc(C(C)(C)C)cc4)cc3)ccnc2cc1OCC(O)CN1CCC(N2CCCCC2)CC1 (stereo not drawn) [Compound 258, 1-[1,4′]Bipiperidineyl-1′-yl-3-{4-[4-(4-tert-butyl-phenylamino)-phenoxy]-6-methoxy-quinolin-7-yloxy}-propan-2-ol], the IC50 was 110 nM.
With COc1cc2c(Oc3ccc(Nc4ccc(C(C)(C)C)cc4)cc3)ccnc2cc1OCC(O)CN1CCC(N2CCCC2)CC1 (stereo not drawn) [Compound 259, 1-{4-[4-(4-Tert-butyl-phenylamino)-phenoxy]-6-methoxy-quinolin-7-yloxy}-3-(4-pyrrolidin-1-yl-piperidin-1-yl)-propan-2-ol] the IC50 was 46.6 nM.
COc1cc2c(Oc3ccc(NC(=O)NCCC(C)(C)C)cc3)ccnc2cc1OCC(O)CN1CCC(Cc2ccccc2)CC1 (stereo not drawn) [Compound 260, 1-(4-{7-[3-(4-Benzyl-piperidin-1-yl)-2-hydroxy-propoxy]-6-methoxy-quinolin-4-yloxy}-phenyl)-3-(3,3-dimethyl-butyl)-urea] showed an IC50 of 26.7 nM.
With COc1cc2c(Oc3ccc(NC(=O)NCCC(C)(C)C)cc3)ccnc2cc1OCC(O)CN1CCC(N2CCCCC2)CC1 (stereo not drawn) [Compound 261, 1-{4-[7-(3-[1,4′]Bipiperidineyl-1′-yl-2-hydroxy-propoxy)-6-methoxy-quinolin-4-yloxy]-phenyl}-3-(3,3-dimethyl-butyl)-urea] the IC50 was < 10 nM.
With COc1cc2c(Oc3ccc(NC(=O)NCCC(C)(C)C)cc3)ccnc2cc1OCC(O)CN1CCC(N2CCCC2)CC1 (stereo not drawn) [Compound 262, 1-(3,3-Dimethyl-butyl)-3-(4-{7-[2-hydroxy-3-(4-pyrrolidin-1-yl-piperidin-1-yl)-propoxy]-6-methoxy-quinolin-4-yloxy}-phenyl)-urea] the IC50 was < 10 nM.
In the case of COc1cc2c(Oc3ccc(NC(=O)NCCC(C)(C)C)cc3)ccnc2cc1OCCCN1CCC[C@H]1CO [Compound 263, 1-(3,3-Dimethyl-butyl)-3-(4-{7-[3-(2-hydroxymethyl-pyrrolidin-1-yl)-propoxy]-6-methoxy-quinolin-4-yloxy}-phenyl)-urea], the IC50 is reported as < 10 nM.
In the case of COc1cc2c(Oc3ccc(NC(=O)NCCC(C)(C)C)cc3)ccnc2cc1OCCCN1CCC(CO)CC1 [Compound 265, 1-(3,3-Dimethyl-butyl)-3-(4-{7-[3-(4-hydroxymethyl-piperidin-1-yl)-propoxy]-6-methoxy-quinolin-4-yloxy}-phenyl)-urea], the IC50 is reported as < 10 nM.
Compound COc1cc2c(Oc3ccc(NC(=O)NCCC(C)(C)C)c(Cl)c3)ccnc2cc1OCCCN1CCC(CO)CC1 [Compound 266, 1-(2-Chloro-4-{7-[3-(4-hydroxymethyl-piperidin-1-yl)-propoxy]-6-methoxy-quinolin-4-yloxy}-phenyl)-3-(3,3-dimethyl-butyl)-urea] has an IC50 of 11 nM.
In the case of COc1cc2c(Oc3ccc(NC(=O)NCCC(C)(C)C)c(Cl)c3)ccnc2cc1OCCCN1CCC(CCO)CC1 [Compound 267, 1-[2-Chloro-4-(7-{3-[4-(2-hydroxy-ethyl)-piperidin-1-yl]-propoxy}-6-methoxy-quinolin-4-yloxy)-phenyl]-3-(3,3-dimethyl-butyl)-urea], the IC50 is reported as 26.7 nM.
With COc1cc2c(Oc3ccc(NC(=O)NCCC(C)(C)C)c(Cl)c3)ccnc2cc1OCCCN1CCC(O)CC1 [Compound 268, 1-(2-Chloro-4-{7-[3-(4-hydroxy-piperidin-1-yl)-propoxy]-6-methoxy-quinolin-4-yloxy}-phenyl)-3-(3,3-dimethyl-butyl)-urea] the IC50 was 15.7 nM.
For COc1cc2c(Oc3ccc(NC(=O)NCCC(C)(C)C)cc3)ccnc2cc1OCCCN(C)CCO [Compound 269, 1-(3,3-Dimethyl-butyl)-3-[4-(7-{3-[(2-hydroxy-ethyl)-methyl-amino]-propoxy}-6-methoxy-quinolin-4-yloxy)-phenyl]-urea], the IC50 was 35.6 nM.
COc1cc2c(Oc3ccc(Nc4ccc(C(C)(C)C)cc4)cc3F)ccnc2cc1OCCCN1CCC(CO)CC1 [Compound 270, [1-(3-{4-[4-(4-Tert-butyl-phenylamino)-2-fluoro-phenoxy]-6-methoxy-quinolin-7-yloxy}-propyl)-piperidin-4-yl]-methanol] showed an IC50 of 303 nM.
With COCCNCCCOc1cc2nccc(Oc3ccc(NC(=O)NCCC(C)(C)C)cc3)c2cc1OC [Compound 271, 1-(3,3-Dimethyl-butyl)-3-(4-{6-methoxy-7-[3-(2-methoxy-ethylamino)-propoxy]-quinolin-4-yloxy}-phenyl)-urea] the IC50 was 33.2 nM.
With COc1cc2c(Oc3ccc(Nc4ccc(C(C)(C)C)cc4)cc3F)ccnc2cc1OCCCN1CCC(CCO)CC1 [Compound 272, 2-[1-(3-{4-[4-(4-Tert-butyl-phenylamino)-2-fluoro-phenoxy]-6-methoxy-quinolin-7-yloxy}-propyl)-piperidin-4-yl]-ethanol] the IC50 was 151 nM.
In the case of COc1cc2c(Oc3ccc(Nc4ccc(C(C)(C)C)cc4)cc3F)ccnc2cc1OCCCN1CCC(O)CC1 [Compound 273, 1-(3-{4-[4-(4-Tert-butyl-phenylamino)-2-fluoro-phenoxy]-6-methoxy-quinolin-7-yloxy}-propyl)-piperidin-4-ol], the IC50 is reported as 161 nM.

Source: US7495104B2, “Quinoline or quinazoline derivatives inhibiting auto-phosphorylation of fibroblast growth factor receptors” (Kirin Beer Kabushiki Kaisha, priority 2001, dated 2009)
